Consider one compound from patent US20220267274A1, “TARGETING PTPN22 IN CANCER THERAPY” (The Johns Hopkins University, priority 2019, published 2022).

This experiment has as its system MC38 tumors. Kind of experiment: MC38 subcutaneous syngeneic tumor model in WT C57Bl/6J mice. The settings on record: LTV1 6 mg/kg/dose, treatment analogous to L1.

Procedure: All mice husbandry, experiments, and euthanasia were performed in accordance with Johns Hopkins IACUC approved protocols. WT C57Bl/6J, Balb/cJ, and PTPN22 KO (B6.Cg-Ptpn22tm2Achn/J) mice were purchased from JAX and bred in-house. For syngeneic immunocompetent mouse models, aged-matched 8-12 week old female mice were injected with MC38 (2.5×10^5) or EG7 (2.5×10^5 for rejection and 5×10^5 for treatment) or CT26 (5×10^5) subcutaneously in the right hind limb. […] LTV1 was also dissolved in DMSO and diluted to the same final formulation for administration at 6 mg/kg/dose. Vehicle injections contained 10% DMSO and 5% cremophor-EL in PBS.

Take `Cc1ccccc1N1C(=O)/C(=C/c2ccc(OCc3cccc(C(=O)O)c3)cc2)C(=O)NC1=S` [LTV1]: the “MC38 tumor growth compared to vehicle” value is on record as “moderately decreased tumor growth”.
